ChEMBL document CHEMBL4130371, “Norepinephrine alkaloids as antiplasmodial agents: Synthesis of syncarpamide and insight into the structure-activity relationships of its analogues as antiplasmodial agents” (Eur J Med Chem, 2017)
pIC50: −log10 of the molar value.

Columns and labels:
[1] = Cytotoxicity against African green monkey Vero cells assessed as reduction in cell viability after 72 hrs by MTT assay; assay type: cell-based; conditions: chlorocebus sabaeus
[2] = tested on: Plasmodium falciparum; test: Antiplasmodial activity against chloroquine-sensitive Plasmodium falciparum 3D7 measured after 72 hrs by SYBR green 1 dye based fluorescence assay; assay type: functional, organism-based; conditions: 3D7, 72 h
[3] = tested on: Plasmodium falciparum; test: Antiplasmodial activity against chloroquine-resistant Plasmodium falciparum K1 measured after 72 hrs by SYBR green 1 dye based fluorescence assay; assay type: functional, organism-based; conditions: K1, 72 h
[4] = Selectivity index, ratio of CC50 for African green monkey Vero cells to IC50 for chloroquine-sensitive Plasmodium falciparum 3D7; assay type: toxicity; conditions: read-out: Ratio CC50/IC50

`COc1cc([C@@H]2c3cc4c(cc3[C@H](O)[C@H]3COC(=O)[C@H]23)OCO4)cc(OC)c1OC` [PODOFILOX] gave a CC50 at 72 h [1] of 5.74 µM.

Work on `COc1ccc([C@@H](O)CNC(=O)/C=C/c2ccccc2)cc1` [AEGELINE] yielded a pIC50 [2] of less than 5.00 and a pIC50 [3] of less than 5.00.

Compound `COc1ccc([C@@H](CNC(=O)CCc2ccccc2)OC(=O)/C=C/c2ccccc2)cc1OC` has a pIC50 [2] of less than 5.00, a pIC50 [3] of less than 5.00 and a CC50 at 72 h [1] of 44.3 µM. The selectivity ratio [4] was less than 4.43.

With `COc1ccc([C@@H](CNC(=O)/C=C/c2ccccc2)OC(=O)CCc2ccccc2)cc1OC` the pIC50 [2] was less than 5.00, the pIC50 [3] was less than 5.00 and the CC50 at 72 h [1] was 36.9 µM. For the same compound, the selectivity ratio [4] was less than 3.69.

`O=C(/C=C/c1ccccc1)OC[C@H](OC(=O)/C=C/c1ccccc1)c1ccc2ccccc2c1` gave a pIC50 [2] of less than 5.00, a pIC50 [3] of 5.67 and a CC50 at 72 h [1] of 181 µM. It also gave a selectivity ratio [4] of less than 18.1.

Work on `COc1ccc([C@H](O)CNC(=O)/C=C/c2ccccc2)cc1` yielded a pIC50 [2] of 5.17 and a pIC50 [3] of 5.14.

`O=C(/C=C/c1ccccc1)OC[C@@H](OC(=O)/C=C/c1ccccc1)c1ccc2ccccc2c1` gave a pIC50 [2] of less than 5.00, a pIC50 [3] of less than 5.00 and a CC50 at 72 h [1] greater than 200 µM. It also gave a selectivity ratio [4] of 20.

`CCCC(=O)NC[C@@H](OC(=O)/C=C/c1ccccc1)c1ccc(OC)c(OC)c1` gave a pIC50 [2] of less than 5.00, a pIC50 [3] of less than 5.00 and a CC50 at 72 h [1] of 42.4 µM. For the same compound, the selectivity ratio [4] was less than 4.24.

`CCCC(=O)O[C@H](CNC(=O)/C=C/c1ccccc1)c1ccc(OC)c(OC)c1` showed a pIC50 [2] of less than 5.00, a pIC50 [3] of less than 5.00 and a CC50 at 72 h [1] of 29.9 µM. The selectivity ratio [4] was less than 2.98.
